In ChEMBL document CHEMBL1201862, “PubChem BioAssay data set” (2004):
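Exposure lasted 48 hours, with cells grown in 96-well plates and compounds tested at five concentrations. The concentration for 50% growth inhibition is given as GI50.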 The source made the active and inactive calls. No stated cut-off is given here; in the data, active = GI50 up to about 1.1 µM and inactive = higher.

What was measured:
Assay in all cases: NCI tumour cell line growth inhibition, 48 h
[1] = test system: SF-268
[2] = test system: Malme-3M
[3] = test system: HT-29
[4] = test system: SNB-75
[5] = test system: RXF 393
[6] = test system: OVCAR-3
[7] = test system: KM12
[8] = test system: EKVX
[9] = test system: T47D
[10] = test system: NCI-H23
[11] = test system: 786-0
[12] = test system: MCF7
[13] = test system: MDA-MB-435
[14] = test system: ACHN
[15] = test system: HCT-15
[16] = test system: TK-10
[17] = test system: MDA-N
[18] = test system: SK-MEL-28
[19] = test system: U-251
[20] = test system: PC-3
[21] = test system: SW-620
[22] = test system: MDA-MB-231
[23] = test system: HL-60
[24] = test system: K562
[25] = test system: OVCAR-5
[26] = test system: UACC-257
[27] = test system: HCT-116
[28] = test system: LOX IMVI
[29] = test system: NCI-H522
[30] = test system: A549
[31] = test system: HOP-62
[32] = test system: SF-539
[33] = test system: IGROV-1
[34] = test system: OVCAR-4
[35] = test system: M14
[36] = test system: UO-31
[37] = test system: MOLT-4
[38] = test system: Hs-578T
[39] = test system: SN12C
[40] = test system: NCI/ADR-RES
[41] = test system: A498
[42] = test system: RPMI-8226
[43] = test system: CCRF-CEM
[44] = test system: OVCAR-8
[45] = test system: COLO 205
[46] = test system: SF-295
[47] = test system: HOP-92
[48] = test system: CAKI-1
[49] = test system: NCI-H226
[50] = test system: SK-MEL-2
[51] = test system: SK-OV-3
[52] = test system: SNB-19
[53] = test system: DU-145
[54] = test system: SK-MEL-5
[55] = test system: UACC-62
[56] = test system: NCI-H460
[57] = test system: HCC 2998
[58] = test system: SR

O=C1NC(N2CCOCC2)=N/C1=C\c1ccccc1O
GI50 [1]: > 100 µM (inactive)
GI50 [2]: > 100 µM (inactive)
GI50 [3]: > 100 µM (inactive)
GI50 [4]: > 100 µM (inactive)
GI50 [5]: > 100 µM (inactive)
GI50 [6]: > 100 µM (inactive)
GI50 [7]: > 100 µM (inactive)
GI50 [8]: > 100 µM (inactive)
GI50 [9]: > 100 µM (inactive)
GI50 [10]: > 100 µM (inactive)
GI50 [11]: > 100 µM (inactive)
GI50 [12]: > 100 µM (inactive)
GI50 [13]: > 100 µM (inactive)
GI50 [14]: > 100 µM (inactive)
GI50 [15]: > 100 µM
GI50 [16]: > 100 µM (inactive)
GI50 [17]: > 100 µM (inactive)
GI50 [18]: > 100 µM (inactive)
GI50 [19]: > 100 µM (inactive)
GI50 [20]: > 100 µM (inactive)
GI50 [21]: > 100 µM (inactive)
GI50 [22]: > 100 µM (inactive)
GI50 [23]: 58.1 µM (inactive)
GI50 [24]: > 100 µM (inactive)
GI50 [25]: > 100 µM (inactive)
GI50 [26]: > 100 µM (inactive)
GI50 [27]: > 100 µM (inactive)
GI50 [28]: > 100 µM (inactive)
GI50 [29]: > 100 µM (inactive)
GI50 [30]: > 100 µM (inactive)
GI50 [31]: > 100 µM (inactive)
GI50 [32]: > 100 µM (inactive)
GI50 [33]: > 100 µM (inactive)
GI50 [34]: > 100 µM (inactive)
GI50 [35]: > 100 µM (inactive)
GI50 [36]: > 100 µM (inactive)
GI50 [37]: > 100 µM (inactive)
GI50 [38]: > 100 µM (inactive)
GI50 [39]: > 100 µM (inactive)
GI50 [40]: > 100 µM (inactive)
GI50 [41]: > 100 µM (inactive)
GI50 [42]: > 100 µM (inactive)
GI50 [43]: > 100 µM (inactive)
GI50 [44]: > 100 µM (inactive)
GI50 [45]: > 100 µM (inactive)
GI50 [46]: > 100 µM (inactive)
GI50 [47]: > 100 µM (inactive)
GI50 [48]: > 100 µM (inactive)
GI50 [49]: > 100 µM (inactive)
GI50 [50]: > 100 µM (inactive)
GI50 [51]: > 100 µM (inactive)
GI50 [52]: > 100 µM (inactive)
GI50 [53]: > 100 µM (inactive)
GI50 [54]: > 100 µM (inactive)

COc1cc(OC)c(CSCC(NC(=O)OCC2c3ccccc3-c3ccccc32)C(=O)O)c(OC)c1 (centres undefined)
GI50 [1]: > 10 µM (inactive)
GI50 [3]: > 10 µM (inactive)
GI50 [4]: 6.95 µM (inactive)
GI50 [5]: > 10 µM (inactive)
GI50 [6]: > 10 µM (inactive)
GI50 [7]: > 10 µM (inactive)
GI50 [8]: > 10 µM (inactive)
GI50 [10]: > 10 µM (inactive)
GI50 [13]: > 10 µM (inactive)
GI50 [14]: > 10 µM (inactive)
GI50 [15]: > 10 µM
GI50 [16]: > 10 µM (inactive)
GI50 [17]: > 10 µM (inactive)
GI50 [18]: > 10 µM (inactive)
GI50 [19]: > 10 µM (inactive)
GI50 [20]: > 10 µM (inactive)
GI50 [21]: > 10 µM (inactive)
GI50 [22]: > 10 µM (inactive)
GI50 [25]: > 10 µM (inactive)
GI50 [27]: > 10 µM (inactive)
GI50 [30]: > 10 µM (inactive)
GI50 [32]: > 10 µM (inactive)
GI50 [33]: > 10 µM (inactive)
GI50 [34]: > 10 µM (inactive)
GI50 [35]: > 10 µM (inactive)
GI50 [36]: 5.68 µM (inactive)
GI50 [39]: > 10 µM (inactive)
GI50 [40]: > 10 µM (inactive)
GI50 [41]: > 10 µM (inactive)
GI50 [44]: > 10 µM (inactive)
GI50 [45]: > 10 µM (inactive)
GI50 [46]: > 10 µM (inactive)
GI50 [47]: > 10 µM (inactive)
GI50 [48]: > 10 µM (inactive)
GI50 [49]: 5.22 µM (inactive)
GI50 [52]: > 10 µM (inactive)
GI50 [53]: > 10 µM (inactive)
GI50 [54]: > 10 µM (inactive)

Nn1c(Cc2ccc(Cl)cc2)n[nH]c1=O
GI50 [1]: > 100 µM (inactive)
GI50 [2]: > 100 µM (inactive)
GI50 [3]: > 100 µM (inactive)
GI50 [4]: > 100 µM (inactive)
GI50 [5]: > 100 µM (inactive)
GI50 [6]: > 100 µM (inactive)
GI50 [7]: > 100 µM (inactive)
GI50 [8]: > 100 µM (inactive)
GI50 [9]: > 100 µM (inactive)
GI50 [10]: > 100 µM (inactive)
GI50 [11]: > 100 µM (inactive)
GI50 [13]: > 100 µM (inactive)
GI50 [14]: > 100 µM (inactive)
GI50 [15]: > 100 µM
GI50 [55]: > 100 µM (inactive)
GI50 [16]: > 100 µM (inactive)
GI50 [17]: > 100 µM (inactive)
GI50 [18]: > 100 µM (inactive)
GI50 [19]: > 100 µM (inactive)
GI50 [21]: > 100 µM (inactive)
GI50 [22]: > 100 µM (inactive)
GI50 [23]: > 100 µM (inactive)
GI50 [24]: > 100 µM (inactive)
GI50 [56]: > 100 µM (inactive)
GI50 [25]: > 100 µM (inactive)
GI50 [26]: > 100 µM (inactive)
GI50 [27]: > 100 µM (inactive)
GI50 [28]: > 100 µM (inactive)
GI50 [57]: > 100 µM (inactive)
GI50 [29]: > 100 µM (inactive)
GI50 [30]: > 100 µM (inactive)
GI50 [31]: 72.1 µM (inactive)
GI50 [32]: > 100 µM (inactive)
GI50 [33]: > 100 µM (inactive)
GI50 [34]: > 100 µM (inactive)
GI50 [35]: > 100 µM (inactive)
GI50 [36]: 34.3 µM (inactive)
GI50 [37]: > 100 µM (inactive)
GI50 [38]: > 100 µM (inactive)
GI50 [39]: > 100 µM (inactive)
GI50 [40]: > 100 µM (inactive)
GI50 [41]: > 100 µM (inactive)
GI50 [42]: > 100 µM (inactive)
GI50 [43]: > 100 µM (inactive)
GI50 [44]: > 100 µM (inactive)
GI50 [58]: > 100 µM (inactive)
GI50 [45]: > 100 µM (inactive)
GI50 [46]: > 100 µM (inactive)
GI50 [47]: > 100 µM (inactive)
GI50 [48]: 50.5 µM (inactive)
GI50 [49]: > 100 µM (inactive)
GI50 [50]: > 100 µM (inactive)
GI50 [51]: > 100 µM (inactive)
GI50 [52]: > 100 µM (inactive)
GI50 [53]: > 100 µM (inactive)
GI50 [54]: > 100 µM (inactive)

O=C1C=CC[C@H]2O[C@@H](COC(=O)Cc3ccccc3)C[C@H]2O1
GI50 [1]: 25 µM (inactive)
GI50 [3]: 25.5 µM (inactive)
GI50 [4]: 30.4 µM (inactive)
GI50 [6]: 38.6 µM (inactive)
GI50 [7]: 18.2 µM (inactive)
GI50 [8]: 29.5 µM (inactive)
GI50 [9]: 58.1 µM (inactive)
GI50 [10]: 20.9 µM (inactive)
GI50 [12]: 44.3 µM (inactive)
GI50 [13]: 40.5 µM (inactive)
GI50 [14]: 32.1 µM (inactive)
GI50 [15]: 18.4 µM
GI50 [55]: 41.9 µM (inactive)
GI50 [16]: 25.9 µM (inactive)
GI50 [17]: 41 µM (inactive)
GI50 [18]: 21.9 µM (inactive)
GI50 [19]: > 10 µM (inactive)
GI50 [20]: 35.2 µM (inactive)
GI50 [21]: 24 µM (inactive)
GI50 [22]: 63.7 µM (inactive)
GI50 [23]: 16.5 µM (inactive)
GI50 [24]: 55.6 µM (inactive)
GI50 [56]: 31.9 µM (inactive)
GI50 [25]: 42.6 µM (inactive)
GI50 [26]: 40.4 µM (inactive)
GI50 [30]: 27.1 µM (inactive)
GI50 [31]: 41.2 µM (inactive)
GI50 [32]: 29.6 µM (inactive)
GI50 [33]: 20 µM (inactive)
GI50 [34]: 24 µM (inactive)
GI50 [35]: 31.7 µM (inactive)
GI50 [36]: 32 µM (inactive)
GI50 [37]: 25.4 µM (inactive)
GI50 [38]: 26.2 µM (inactive)
GI50 [39]: 66.1 µM (inactive)
GI50 [40]: 38 µM (inactive)
GI50 [41]: > 100 µM (inactive)
GI50 [42]: 28.8 µM (inactive)
GI50 [43]: 41.4 µM (inactive)
GI50 [44]: 28.7 µM (inactive)
GI50 [58]: 32 µM (inactive)
GI50 [45]: 47.5 µM (inactive)
GI50 [46]: 30.4 µM (inactive)
GI50 [47]: 28.1 µM (inactive)
GI50 [48]: 38.5 µM (inactive)
GI50 [49]: 35.4 µM (inactive)
GI50 [50]: 51.5 µM (inactive)
GI50 [51]: > 100 µM (inactive)
GI50 [52]: 25.6 µM (inactive)
GI50 [53]: 88.9 µM (inactive)
GI50 [54]: 49.7 µM (inactive)
